Experimental data reported in patent US9908884B2, “EGFR inhibitors and methods of treating disorders” (priority 2009, dated 2018).

Columns and labels:
[1] = Phase I trial; cited from earlier work
[2] = system: H1975 (L858R/T790M) cells; test: EGFR signaling immunoblot in H1975 cells; assay type: cell-based; details: 16 hours
Method: All cell lines were maintained in RPMI 1640 (Cellgro; Mediatech Inc., Herndon, Calif.) supplemented with 10% FBS 100 units/mL penicillin, 100 […], and 2 mM glutamine.
The supernatant was used for subsequent procedures. […] Antibody binding was detected using an enhanced chemiluminescence system (New England Nuclear Life Science Products Inc.).

[3] = biological target: T790M EGFR (Homo sapiens, UniProt P00533, T790M); test: Mass spectrometric analysis of T790M EGFR modification; details: MS/MS of peptic peptide 791-798
Description: (A) Intact ESI mass spectra of the free and inhibitor bound. The raw m/z data are shown on the left and the transformed, mass only spectra shown on the right. The measured and theoretical molecular weights of the unmodified as well as modified version of each protein are indicated. In the transformed mass spectra, peaks corresponding to a phosphorylation are indicated. […] All the ions in these mass spectra have been converted to a single charge state.
For intact protein mass spectral analysis, the proteins T790M alone and with small molecules bound were injected onto a POROS 20 R2 protein trap and desalted with 0.05% trifluoroacetic acid (TFA) at a flow rate of 100 μL/min. The proteins were eluted into the mass spectrometer using a linear 15%-75% (v/v) acetonitrile gradient over 4 min at 50 μL/min using a Shimadzu HPLC system (LC-10ADvp). Intact protein analyses were performed on an LCT-Premier instrument (Waters Corp., Milford, Mass., USA) equipped with a standard electrospray source. The capillary voltage was 3.2 kV and the cone voltage of 35 V. Nitrogen was used as desolvation gas. A source temperature of 175° C. and a desolvation temperature of 80° C. were applied. The instrument was calibrated by infusing a solution of 500 fmol/μL myoglobin and the mass accuracy was less than 10 ppm. […]

[4] = system: lung cancer patients; details: all lung cancer patients, not selected for EGFR mutation; cited from earlier work

Which Cmax [1] does the source give for `CCOc1cc2ncc(C#N)c(Nc3ccc(OCc4ccccn4)c(Cl)c3)c2cc1NC(=O)/C=C/CN(C)C` [HKI-272] here?
Its Cmax is roughly 200 nM.

What does the source list for `C=CC(=O)Nc1cccc(Oc2nc(Nc3ccc(N4CCN(C)CC4)cc3)ncc2Cl)c1` [WZ3146, N-(3-(5-chloro-2-(4-(4-methylpiperazin-1-yl)phenylamino)pyrimidin-4-yloxy)phenyl)acrylamide]?
inhibition of EGFR, Akt and ERK 1/2 phosphorylation [2]: significantly lower concentrations compared with CL-387,785; site of covalent attachment [3]: Cys797 was the site of covalent attachment

With `C#Cc1cccc(Nc2ncnc3cc(OCCOC)c(OCCOC)cc23)c1` [erlotinib] as the molecule, how does the “median time to tumor progression” value [4] read?
Its value is “approximately 2 months”.

With `COc1cc2ncnc(Nc3ccc(F)c(Cl)c3)c2cc1OCCCN1CCOCC1` [gefitinib] as the molecule, how does the “median time to tumor progression” value [4] read?
The value was “approximately 2 months”.
